{
  "source": "paper PMC3161514",
  "about": "(Chemistry & biology, 2011)",
  "origin": "cited, not measured here",
  "key": {"[1]": {"test_system": "methicillin-resistant S. aureus (MRSA)", "conditions": "MIC values among the lowest reported for lantibiotics, ref Ekkelenkamp, et al., 2005, Verhoef"}, "[2]": {"test_system": "vancomycin-resistant Enterococci (VRE)", "conditions": "MIC values among the lowest reported for lantibiotics, ref Ekkelenkamp, et al., 2005, Verhoef"}, "[3]": {"test_system": "several strains of S. aureus", "conditions": "against several strains of S. aureus; ref Castiglione, et al., 2008"}},
  "data": [
    {"substance": "epilancin 15X", "values": [
      {"measurement": "Activity against MRSA", "setting": "[1]", "result": "active"},
      {"measurement": "Activity against VRE", "setting": "[2]", "result": "active"}
    ]},
    {"substance": "microbisporicin", "values": [
      {"measurement": "Potency relative to epidermin", "setting": "[3]", "result": "two orders of magnitude more potent"}
    ]}
  ]
}
